These results are taken from article PMC9605374 (Marine Drugs, 2022).

By IC50 is commonly meant the midpoint of a concentration-inhibition curve.

In series [1] the test system is 22Rv1 cells. The series is described as follows: Cell cycle progression and DNA fragmentation analysis (PI, flow cytometry). Format: cell-based, human. The settings on record: 22Rv1, 48 h. As for the experimental part:
Figure 4 Investigation of the proapoptotic activity of NB. Flow cytometry analysis of 22Rv1 cells after 48 h of treatment. (A) Cell cycle and DNA fragmentation analysis. Treated cells were stained with PI and analyzed using a flow cytometry technique. Sub-G1 population was assumed to be apoptotic cells containing fragmentated DNA. (B) Analysis of phosphatidylserine externalization. Treated cells were double-stained with annexin-V-FITC and PI and analyzed using the flow cytometry technique. Cells of the low left quadrant (annexin-V-FITC^−/PI^−) were considered as alive cells. The Cell Quest Pro v.5.2.1 software (BD Bioscience, San Jose, CA, USA) was used to analyze and quantify the FACS data. Cells treated for 48 h with 10 µM of anisomycin were used as a positive control. Number of replicates n = 3. Statistical significance: * p < 0.05 (ANOVA). […]
DNA fragmentation and cell cycle progression of treated and untreated cells (negative control) were analyzed by flow cytometry as previously described. […]

Series [2] has as its system 22Rv1. Further details: method as in PMID 27355960. The settings on record: cited from earlier work.
Series [3] relates to PC3-DR cells. The series is described as follows: MTT assay with or without tariquidar pretreatment. The class given is cell-based, human. As to conditions: 48 h, tariquidar 50 nM 30 min pretreatment. As for the experimental part: Number of replicates n = 3. […] Viability was measured using an MTT assay. Number of replicates n = 3.
As a next step, we investigated how NB interacts with p-gp. P-gp activity can be reduced in two distinct ways: (i) competitive inhibition through direct binding to the active pocket as the ligand itself; and (ii) allosteric/noncompetitive inhibition reducing the activity of a protein through binding to allosteric/regulatory sites or other means. […] Therefore, docetaxel binds to p-gp (while being excreted from the cell), competitively inhibiting p-gp-mediated calcein-AM excretion, which leads to calcein accumulation, resulting in more intense green fluoresce. To elucidate the mechanism of p-gp inhibition by NB (competitive vs. allosteric/noncompetitive inhibition), we co-treated PC3-DR cells with tariquidar (TQD), a selective noncompetitive p-gp inhibitor and NB, and examined the effect on cellular viability (Figure 8C). […]
The MTT assay was used to monitor the effect of the drugs on cell viability in terms of metabolic activity, as previously reported. […] Finally, 50 μL/well of DMSO were added to solve the formed formazan crystals produced by the metabolic active cells and Infinite F200PRO reader (TECAN, Männedorf, Switzerland) was used to measure the cell viability. […]
On the technique in general: Tetrazolium dyes change colour on reduction, which living cells bring about.

For series [4], the system named is PC3-DR. The experiment in a line: MTT assay, cell viability. The class given is cell-based, human. The text has this:
To examine the anticancer potential and selectivity of NB, we used a panel of six human prostate cancer cell lines, harboring different levels of treatment resistance to representatively reflect the heterogeneity of the disease. […] Additionally, four human noncancer cells lines were utilized in order to determine the selectivity of NB towards prostate cancer cells, i.e., prostate noncancer PNT2 and RWPE-1 cells, human embryonic kidney HEK 293T cells, and human fibroblasts MRC-9. The different cell lines were treated with NB and the cell viability was examined using MTT assay (Figure 1). The mean IC50 of NB and docetaxel (used as a reference substance) in noncancerous cell lines was divided by the mean IC50 in the prostate cancer cell lines to determine the selectivity index (SI).
The MTT assay was used to monitor the effect of the drugs on cell viability in terms of metabolic activity, as previously reported. First, preincubation of the cells in 96-well plates (6 × 10^3 cells/well in 100 μL/well) was performed overnight in the correspondent culture medium. Next, the medium was exchanged for fresh medium containing the investigated compounds or a vehicle (100 μL/well). Cells were then incubated for 48 h, unless otherwise stated. Then, 10 μL/well of 3-(4,5-dimethylthiazol-2-yl)-2,5-diphenyltetrazolium bromide reagent (MTT, 5 mg/mL) were added. After 2–4 h of additional incubation the media was removed, and the plates were dried. Finally, 50 μL/well of DMSO were added to solve the formed formazan crystals produced by the metabolic active cells and Infinite F200PRO reader (TECAN, Männedorf, Switzerland) was used to measure the cell viability. The results were proceeded with a GraphPad Prism software v.9.1.1 (GraphPad Software, San Diego, CA, USA). Cells treated with the solvent of the drugs alone were used as a control (100% alive cells). The effect of the drugs on cell viability is represented as IC50.

Series [5] concerns various pathogenic bacteria. On the set-up: method as in PMID 26039736. As to conditions: cited from earlier work.

As to `COc1ccc(C2SSC34CC5(O)C(Cl)C=CC(O)C5ON3C(=O)C2N(C)C4=O)c(O)c1OC` (stereo not shown) [NB, N-methylpretrichodermamide B], in series [1], the “DNA fragmentation (sub-G1 population)” value was “caused DNA fragmentation” and the cell cycle arrest result is given as “G1-phase arrest”. Besides, in series [2], the IC50 was 510 nM. The “cytotoxicity when co-treated with TQD” value in series [3] is “increased”. The “IC50 in PC3-DR compared to the parental PC3 cells” value in series [4] (48 h) is “twofold lower”. In series [4] (Homo sapiens, PC3-DR, 48 h of treatment, mean ± SD), this compound showed an IC50 of 3.63 ± 1.03 µM. The MIC in series [5] is given as 8–32 µm/mL.
